The source of these data is US20160008777A1, “PHARMACEUTICAL COMPOUNDING KIT” (Novotec Consulting Inc., priority 2014, published 2016).

Several values for one entry are separate records, joined by “and”; a condition that tells them apart may be missing. Equal entries are not always repeated. Structures can show the parent of a compound that is named as a salt.

A short description of the series: Content uniformity of the Example 2 lotion: product from ten individual pumps weighed and assayed for content of each drug. The format is physicochemical. As to conditions: for average amount contained in a gram of lotion product: per gram of lotion; for assay values, % of label claim / USP Acceptance Value (AV): ten pump samples; for USP Acceptance Value (AV): limit of 15. How it is done:
The content uniformity of the lotion was determined by assaying product from ten individual pumps spaced equally over the content of the bottle. After the pump was primed, product from ten pumps was collected by taking product from approximately every tenth pump. The product from each pump was weighed and assayed for content of each drug.

The mark [1] stands for this setting: Example 2 lotion, average ± standard deviation of ten pump samples.
[2] abbreviates: Example 2 lotion, average ± standard deviation of ten pump samples, label claim 20 mg/g.
The mark [3] stands for this setting: Example 2 lotion, individual pump samples No. 1-10, label claim 20 mg/g (2.0%), dihydrochloride.
Setting [4] is: Example 2 lotion, individual pump samples No. 1-10, label claim 20 mg/g (2.0%).

Consider cyanocobalamin, for which, where the note is “Example 2 lotion”, the “average amount contained in lotion product, % w/w” value (from here on “average amount contained … % w/w”) worked out at 0.07 % w/w; the “average amount contained in a gram of lotion product” value (shortened to “average amount contained in a gram”) was determined as 0.697 mg; the “assay values, % of label claim” value is recorded as 90-110%; the “USP Acceptance Value (AV)” value was found to be 4.45. Further, under “Example 2 lotion at maximum strength, individual pump samples No. 1-10, label claim 0.7 mg/g (0.07%)”, the “Cyanocobalamin Wt.” value is 0.723 mg/g and 0.711 mg/g and 0.694 mg/g and 0.696 mg/g (2×) and 0.682 mg/g (2×) and 0.701 mg/g and 0.684 mg/g and 0.699 mg/g. Besides, the “Cyanocobalamin Wt. (mg/g), Average” value under setting [1] worked out at 0.697 ± 0.013 mg/g. In addition, the “Cyanocobalamin % Label Claim, Average” value (Example 2 lotion, average ± standard deviation of ten pump samples, label claim 0.7 mg/g) is listed as 99.54 ± 1.86%. For the same compound, the “Cyanocobalamin % Label Claim” value (Example 2 lotion, individual pump samples No. 1-10, label claim 0.7 mg/g (0.07%)) was 103.29% and 101.57% and 99.14% and 99.43% (2×) and 97.43% (2×) and 100.14% and 97.71% and 99.86%.

For the compound `O=C(O)COCCN1CCN([C@H](c2ccccc2)c2ccc(Cl)cc2)CC1` [Levocitirizine dihydrochloride, levocetirizine dihydrochloride], where the note is “Example 2 lotion”, the “average amount contained … % w/w” value turned out to be 1.97 % w/w; the “average amount contained in a gram” value came to 19.76 mg; the “assay values, % of label claim” value is listed as 90-110%; the “USP Acceptance Value (AV)” value is on record as 6.66. The “Levocitirizine dihydrochloride Wt. (mg/g), Average” value under setting [1] is listed as 19.76 ± 0.55 mg/g. The “Levocitirizine dihydrochloride % Label Claim, Average” value under setting [2] was 98.79 ± 2.77%. Further, under setting [3], the “Levocitirizine dihydrochloride % Label Claim” value was 97.15% and 96.00% and 102.10% and 103.90% and 99.90% and 101.10% and 96.80% and 95.80% and 96.75% and 97.75%; the “Levocitirizine dihydrochloride Wt.” value was 19.43 mg/g and 19.32 mg/g and 20.42 mg/g and 20.78 mg/g and 19.98 mg/g and 20.22 mg/g and 19.36 mg/g and 19.16 mg/g and 19.35 mg/g and 19.55 mg/g.

For `C/C(=C\C(=O)OCCCCCCCCC(=O)O)C[C@@H]1OC[C@H](C[C@@H]2O[C@H]2[C@@H](C)[C@H](C)O)[C@@H](O)[C@H]1O` [Mupirocin, mupirocin], for the setting “Example 2 lotion”, the “average amount contained … % w/w” value is given as 1.93 % w/w; the “average amount contained in a gram” value came out at 19.32 mg; the “assay values, % of label claim” value is 90-110%; the “USP Acceptance Value (AV)” value is 6.44. Under setting [1], the “Mupirocin Wt. (mg/g), Average” value amounted to 19.32 ± 0.38 mg/g. Moreover, the “Mupirocin % Label Claim, Average” value under setting [2] was 96.62 ± 1.90%. Under setting [4], the “Mupirocin % Label Claim” value was 99.60% and 96.00% (2×) and 96.10% and 95.85% and 98.55% and 95.70% and 92.90% and 98.45% and 97.00%; the “Mupirocin Wt.” value was 19.92 mg/g and 19.20 mg/g (2×) and 19.22 mg/g and 19.17 mg/g and 19.71 mg/g and 19.14 mg/g and 18.58 mg/g and 19.69 mg/g and 19.40 mg/g.
